Drawing on patent US10125098B2, “Therapeutic compounds and methods of use thereof” (GENENTECH, INC., priority 2014, dated 2018), this text covers IC50 for 25 compounds.

SMILES strings stand for the structures. Counter-ions that a name gives are not always drawn. Some results are limits rather than exact numbers.

The target in this experiment is T1, hNav1.7 (Homo sapiens, UniProt Q15858).
T1 construct: expressed in transfected cells
T1 sequence (Q15858 1-1977 isoform Q15858-3): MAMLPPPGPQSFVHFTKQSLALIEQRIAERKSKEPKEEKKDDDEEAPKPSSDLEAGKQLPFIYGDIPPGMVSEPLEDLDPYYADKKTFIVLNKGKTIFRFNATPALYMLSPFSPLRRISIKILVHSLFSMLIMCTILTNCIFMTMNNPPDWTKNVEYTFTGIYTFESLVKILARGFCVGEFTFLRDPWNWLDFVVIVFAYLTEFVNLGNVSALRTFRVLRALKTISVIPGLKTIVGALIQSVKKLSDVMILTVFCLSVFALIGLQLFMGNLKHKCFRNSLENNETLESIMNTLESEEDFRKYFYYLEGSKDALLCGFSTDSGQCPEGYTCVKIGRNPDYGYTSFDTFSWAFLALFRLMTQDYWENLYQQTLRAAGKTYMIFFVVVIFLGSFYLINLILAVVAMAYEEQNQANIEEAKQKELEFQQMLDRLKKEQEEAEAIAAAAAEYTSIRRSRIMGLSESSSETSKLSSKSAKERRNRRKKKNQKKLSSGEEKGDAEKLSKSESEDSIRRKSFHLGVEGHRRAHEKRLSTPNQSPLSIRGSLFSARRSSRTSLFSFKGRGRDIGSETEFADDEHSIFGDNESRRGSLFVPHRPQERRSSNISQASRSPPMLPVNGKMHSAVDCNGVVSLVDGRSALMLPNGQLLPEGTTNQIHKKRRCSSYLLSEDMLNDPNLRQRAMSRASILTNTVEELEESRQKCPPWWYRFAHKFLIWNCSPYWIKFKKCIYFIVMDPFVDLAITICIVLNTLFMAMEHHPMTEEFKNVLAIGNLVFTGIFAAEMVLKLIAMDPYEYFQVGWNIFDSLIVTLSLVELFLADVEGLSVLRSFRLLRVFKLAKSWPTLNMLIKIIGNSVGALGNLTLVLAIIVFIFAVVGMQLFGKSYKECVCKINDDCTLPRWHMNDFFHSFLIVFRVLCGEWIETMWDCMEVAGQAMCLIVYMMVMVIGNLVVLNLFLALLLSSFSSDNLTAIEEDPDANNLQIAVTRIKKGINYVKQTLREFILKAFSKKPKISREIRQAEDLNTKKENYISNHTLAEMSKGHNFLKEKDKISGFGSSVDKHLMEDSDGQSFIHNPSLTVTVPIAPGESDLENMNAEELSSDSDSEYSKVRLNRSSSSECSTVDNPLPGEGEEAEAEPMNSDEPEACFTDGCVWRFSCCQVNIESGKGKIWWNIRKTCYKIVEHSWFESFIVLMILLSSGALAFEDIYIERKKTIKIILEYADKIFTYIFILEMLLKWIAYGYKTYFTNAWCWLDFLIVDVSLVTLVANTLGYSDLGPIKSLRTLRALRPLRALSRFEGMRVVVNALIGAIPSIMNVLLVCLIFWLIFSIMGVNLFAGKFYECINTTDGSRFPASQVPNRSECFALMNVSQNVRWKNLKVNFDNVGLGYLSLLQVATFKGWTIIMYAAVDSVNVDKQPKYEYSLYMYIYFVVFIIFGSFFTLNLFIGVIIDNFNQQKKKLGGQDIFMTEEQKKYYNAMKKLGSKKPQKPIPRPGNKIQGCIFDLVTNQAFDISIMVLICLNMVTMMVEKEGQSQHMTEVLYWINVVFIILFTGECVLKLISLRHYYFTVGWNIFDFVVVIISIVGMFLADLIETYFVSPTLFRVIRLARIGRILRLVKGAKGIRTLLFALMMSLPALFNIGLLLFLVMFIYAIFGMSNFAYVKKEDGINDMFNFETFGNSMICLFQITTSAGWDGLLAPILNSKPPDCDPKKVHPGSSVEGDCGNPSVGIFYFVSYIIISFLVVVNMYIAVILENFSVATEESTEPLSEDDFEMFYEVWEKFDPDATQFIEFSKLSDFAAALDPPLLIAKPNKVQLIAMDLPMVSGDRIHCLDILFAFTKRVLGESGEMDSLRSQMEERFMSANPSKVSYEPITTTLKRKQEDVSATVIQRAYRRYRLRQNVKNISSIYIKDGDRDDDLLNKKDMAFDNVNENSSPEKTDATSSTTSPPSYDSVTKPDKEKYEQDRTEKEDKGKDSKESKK
T1 sequence (Q07699 19-218 partner): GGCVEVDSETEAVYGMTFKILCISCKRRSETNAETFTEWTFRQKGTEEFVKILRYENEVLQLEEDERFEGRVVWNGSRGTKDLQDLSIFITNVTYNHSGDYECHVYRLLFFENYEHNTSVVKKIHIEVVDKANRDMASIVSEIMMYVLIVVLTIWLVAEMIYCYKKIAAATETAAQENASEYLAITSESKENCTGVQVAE
The experiment in a line: Tritiated compound binding (LBA) to membranes from cells expressing hNav1.7 and the β1 subunit, competitive binding. Conditions: competitive binding vs 100 pM [3H]compound, 18 h, room temperature, membranes with hNav1.7 and β1 subunit. As to the method: Tritiated Compound Binding to Membranes
Isolated from Cells that Heterologously Express hNav1.7 and the β1 Subunit
Preparation of membranes containing recombinantly expressed sodium channels: Frozen recombinant cell pellets were thawed on ice and diluted to 4 times the cell pellet weight with ice cold 50 mM Tris HCl, pH 7.4 buffer. The cell suspensions were homogenized on ice using a motorized glass dounce homogeniser. […] The supernatants were collected and centrifuged at 10000×g at 4° C. for 50 min. The pellets were then re-suspended in 100 mM NaCl, 20 mM Tris HCl, pH 7.4 buffer containing 1% v/v protease inhibitors (Calbiochem) and re-homogenized on ice. The homogenized membranes were then processed through a syringe equipped with a 26 gauge needle. Protein concentrations were determined by Bradford Assay and the membranes were stored at −80° C.
Saturation experiments. A representative compound of formula (I) having a methyl group was tritiated. Three tritiums were incorporated in place of methyl hydrogens to generate [^3H]compound. Binding of this radioligand was performed in 5 mL borosilicate glass test tubes at room temperature. Binding was initiated by adding membranes to increasing concentrations of [^3H]compound in 100 mM NaCl, 20 mM Tris HCl, pH 7.4 buffer containing 0.01% w/v bovine serum albumin (BSA) for 18 h. Non-specific binding was determined in the presence of 1 μM unlabeled compound. After 18 h, the reactants were filtered through GF/C glass fiber filters presoaked in 0.5% w/v polyethylene imine. […] [^3H]compound bound to filters was quantified by liquid scintillation counting.
Binding reactions were performed in 96-well polypropylene plates at room temperature for 18 h. In 360 μL, membranes were incubated with 100 pM [^3H]compound and increasing concentrations of Test Compound. Non-specific binding was defined in the presence of 1 μM unlabeled compound. Reactions were transferred and filtered through 96-well glass fiber/C filter plates presoaked with 0.5% polyethylene imine. […] Bound radioactivity was determined by liquid scintillation counting.
Data Analysis: For saturation experiments, non-specific binding was subtracted from total binding to provide specific binding and these values were recalculated in terms of pmol ligand bound per mg protein. Saturation curves were constructed and dissociation constants were calculated using the single site ligand binding model: Beq=(Bmax*X)/(X+Kd), where Beq is the amount of ligand bound at equilibrium, Bmax is the maximum receptor density, Kd is the dissociation constant for the ligand, and X is the free ligand concentration. For competition studies percent inhibition was determined and IC50 values were calculated using a 4 parameter logistic model (% inhibition=(A+((B−A)/(1+((x/C)^D)))) using XLfit, where A and B are the maximal and minimum inhibition respectively, C is the IC50 concentration and D is the (Hill) slope.
`CC(c1cc(Cl)cc(Cl)c1)N1CCC(COc2cc(F)c(C(=O)N3CCC[C@H]3C(=O)O)cc2C2CC2)CC1` (stereo partly drawn) [Example 39, (2S)-1-(5-cyclopropyl-4-((1-(1-(3,5-dichlorophenyl)ethyl)piperidin-4-yl)methoxy)-2-fluorobenzoyl)pyrrolidine-2-carboxylic acid trifluoroacetic acid salt]: the IC50 (in general, the concentration that inhibits the measured activity by half) was 43.6 nM. With `CC12CC3(C)CC(C)(C1)CC(COc1cc(F)c(C(=O)N4CCC[C@H]4C(=O)O)cc1C1CC1)(C2)C3` [Example 3, (S)-1-(5-cyclopropyl-2-fluoro-4-((3,5,7-trimethyladamantan-1-yl)methoxy)benzoyl)pyrrolidine-2-carboxylic acid] the figure was 8.9 nM. In turn, `CN(C(=O)c1cc(C2CC2)c(OCC23CC4CC(CC(C4)C2)C3)cc1F)C1(C(=O)O)CC1` [Example 7, 1-(4-(adamantan-1-ylmethoxy)-5-cyclopropyl-2-fluoro-N-methylbenzamido)-cyclopropanecarboxylic acid] came in with an IC50 of 3050 nM. This IC50 is about 340-fold higher than that of the compound before. With `O=C(O)[C@H]1CCCN1C(=O)c1cc(C2CC2)c(OCC23CC4CC(CC(C4)C2)C3)cc1F` [Example 2, (R)-1-(4-(adamantan-1-ylmethoxy)-5-cyclopropyl-2-fluorobenzoyl)pyrrolidine-2-carboxylic acid] the figure was 426 nM. As for `CC1(COc2cc(F)c(C(=O)N3CCC[C@H]3C(=O)O)cc2C2CC2)CCC(F)(F)CC1` [Example 12, (S)-1-(5-cyclopropyl-4-((4,4-difluoro-1-methylcyclohexyl)methoxy)-2-fluorobenzoyl)pyrrolidine-2-carboxylic acid], the figure is 984 nM. Compound `CC(C)(C)OC(=O)N1CC(n2nccc2-c2cc(Cl)ccc2Oc2cc(F)c(C(=O)N3CCC[C@H]3C(=O)O)cc2F)C1` [Example 33, (S)-1-(4-(2-(1-(1-(tert-butoxycarbonyl)azetidin-3-yl)-1H-pyrazol-5-yl)-4-chlorophenoxy)-2,5-difluorobenzoyl)pyrrolidine-2-carboxylic acid] gave an IC50 of more than 10000 nM. As for `C[C@@H](Oc1ccc(Cl)c(Cl)c1)c1cc(F)c(C(=O)NC2(C(=O)O)CC2)cc1C1CC1` [Example 9, (R)-1-(5-cyclopropyl-4-(1-(3,4-dichlorophenoxy)ethyl)-2-fluorobenzamido)cyclopropanecarboxylic acid], the figure is more than 10000 nM; as for `CC1(COc2cc(F)c(C(=O)N3CCC[C@H]3C(=O)O)cc2C2CC2)CN(C(c2ccccc2)c2cc(Cl)cc(Cl)c2)C1` (stereo partly drawn) [Example 28, (2S)-1-(5-cyclopropyl-4-((1-((3,5-dichlorophenyl)(phenyl)methyl)-3-methylazetidin-3-yl)methoxy)-2-fluorobenzoyl)pyrrolidine-2-carboxylic acid trifluoroacetic acid salt], 17.6 nM. `CC[C@H](C)[C@H](NC(=O)c1cc(C2CC2)c(OCC23CC4CC(CC(C4)C2)C3)cc1F)C(=O)O` [Example 43, (2S,3S)-2-(4-(adamantan-1-ylmethoxy)-5-cyclopropyl-2-fluorobenzamido)-3-methylpentanoic acid] came in with an IC50 of 82.3 nM. Compound `N#CC1(COc2cc(F)c(C(=O)N3CCC[C@H]3C(=O)O)cc2Cl)C2CC3CC(C2)CC1C3` (stereo partly drawn) [Example 31, (S)-1-(5-chloro-4-(((1S,3S,5S,7S)-2-cyanoadamantan-2-yl)methoxy)-2-fluorobenzoyl)pyrrolidine-2-carboxylic acid] registered a concentration for half-maximal inhibition (IC50) of more than 10000 nM. For `O=C(O)CNC(=O)c1cc(C2CC2)c(OCC23CC4CC(CC(C4)C2)C3)cc1F` [Example 35, 2-(4-(adamantan-1-ylmethoxy)-5-cyclopropyl-2-fluorobenzamido) acetic acid], the IC50 was determined as 7830 nM. Regarding `O=C(O)[C@@H]1CCCN1C(=O)c1cc(C2CC2)c(OCC2CCCCC2)cc1F` [Example 13, (S)-1-(4-(cyclohexylmethoxy)-5-cyclopropyl-2-fluorobenzoyl)pyrrolidine-2-carboxylic acid], the IC50 was found to be 173 nM. With `N#CC1(COc2cc(F)c(C(=O)N3CCC[C@H]3C(=O)O)cc2C2CC2)C2CC3CC(C2)CC1C3` (stereo partly drawn) [Example 32, (S)-1-(4-(((1S,3S,5S,7S)-2-cyanoadamantan-2-yl)methoxy)-5-cyclopropyl-2-fluorobenzoyl)pyrrolidine-2-carboxylic acid] the figure was 1540 nM; with `O=C(O)[C@@H]1CCCN1C(=O)c1cc(C2CC2)c(O[C@H]2C3CC4CC2C[C@](F)(C4)C3)cc1F` [Example 18, (S)-1-(5-cyclopropyl-2-fluoro-4-(((1R,2s,3S,5R,7R)-5-fluoroadamantan-2-yl)oxy)benzoyl)pyrrolidine-2-carboxylic acid], 4500 nM. `CC1(C)CCCC(COc2cc(F)c(C(=O)N3CCC[C@H]3C(=O)O)cc2C2CC2)C1` (stereo partly drawn) [Example 16, (2S)-1-(5-cyclopropyl-4-((3,3-dimethylcyclohexyl)methoxy)-2-fluorobenzoyl)pyrrolidine-2-carboxylic acid] had a half-inhibitory concentration (IC50) of 39.8 nM.

Turning to `O=C(O)[C@@H]1CCCN1C(=O)c1cc(Cl)c(COc2ccc(OC(F)(F)F)c(Cl)c2)cc1F` [Example 30, (S)-1-(5-chloro-4-((3-chloro-4-(trifluoromethoxy)phenoxy)methyl)-2-fluorobenzoyl)pyrrolidine-2-carboxylic acid], the IC50 came out at 345 nM.

As to `O=C(O)[C@@H]1CCCN1C(=O)c1cc(Cl)c(OCC23CC4CC(CC(C4)C2)C3)cc1F` [Example 41, (S)-1-(4-(adamantan-1-ylmethoxy)-5-chloro-2-fluorobenzoyl)pyrrolidine-2-carboxylic acid], the IC50 came to 640 nM. This IC50 is about 1.9-fold higher than that of the compound before. With `O=C(O)[C@@H]1CCCN1C(=O)c1cc(Cl)c(Oc2ccc(OC(F)(F)F)c(Cl)c2)cc1F` [Example 37, (S)-1-(5-chloro-4-(3-chloro-4-(trifluoromethoxy)phenoxy)-2-fluorobenzoyl)-pyrrolidine-2-carboxylic acid] the figure was 5230 nM.

`Nc1noc2ccc(-c3cc(Cl)ccc3Oc3cc(F)c(C(=O)N4CCC[C@H]4C(=O)O)cc3F)cc12` [Example 25, (S)-1-(4-(2-(3-aminobenzo[d]isoxazol-5-yl)-4-chlorophenoxy)-2,5-difluorobenzoyl)pyrrolidine-2-carboxylic acid trifluoroacetic acid] came in with a half-inhibitory concentration (IC50) of more than 10000 nM.

As to `O=C(O)[C@@H]1CCCN1C(=O)c1cc(Cl)c(Oc2cnc(OCC(F)(F)F)c(Cl)c2)cc1F` [Example 217, (S)-1-(5-Chloro-4-((5-chloro-6-(2,2,2-trifluoroethoxy)pyridin-3-yl)oxy)-2-fluorobenzoyl)pyrrolidine-2-carboxylic acid trifluoroacetate], the IC50 is 2700 nM. This lies in the single-digit micromolar range. As for `CC1(COc2cc(F)c(C(=O)N3CCC[C@H]3C(=O)O)cc2C2CC2)CN(c2cc(C(F)(F)F)c(Cl)cn2)C1` [Example 21, (S)-1-(4-((1-(5-chloro-4-(trifluoromethyl)pyridin-2-yl)-3-methylazetidin-3-yl)methoxy)-5-cyclopropyl-2-fluorobenzoyl)pyrrolidine-2-carboxylic acid trifluoroacetic acid salt], the figure is 359 nM; as for `O=C(O)[C@@H]1CCCN1C(=O)c1cc(Cl)c(Oc2cnc(OCC(F)(F)F)c(Cl)c2)cc1F` [Example 24, (S)-1-(5-chloro-4-((5-chloro-6-(2,2,2-trifluoroethoxy)pyridin-3-yl)oxy)-2-fluorobenzoyl)pyrrolidine-2-carboxylic acid trifluoroacetic acid salt], 2730 nM. As to `C[C@]1(COc2cc(F)c(C(=O)N3CCC[C@H]3C(=O)O)cc2C2CC2)CC[C@@H](C(F)(F)F)CC1` [Example 42, cis-(S)-1-(5-cyclopropyl-2-fluoro-4-((1-methyl-4-(trifluoromethyl)-cyclohexyl)methoxy)benzoyl)pyrrolidine-2-carboxylic acid], the IC50 came out at 231 nM. As for `O=C(O)[C@@H]1CCCN1C(=O)c1cc(C2CC2)c(O[C@@H]2CCCN(Cc3ccc(F)cc3Cl)C2)cc1F` [Example 38, (S)-1-(4-(((R)-1-(2-chloro-4-fluorobenzyl)piperidin-3-yl)oxy)-5-cyclopropyl-2-fluorobenzoyl)pyrrolidine-2-carboxylic acid trifluoroacetic acid salt], the figure is 152 nM. As for `O=C(O)[C@@H]1CCCN1C(=O)c1cc(Cl)c(OC[C@@H]2C[C@@H]3[C@H](C2)C3(F)F)cc1F` [Example 44], the figure is not below 10000 nM.
